According to ChEMBL document CHEMBL5214967, “Natural Product-Inspired Targeted Protein Degraders: Advances and Perspectives” (J Med Chem, 2022):

Columns and labels:
[1] = test system: CWR22R; assay: Cytotoxicity against human 22Rv1 cells; type: functional, cell-based
[2] = molecular target: Kelch-like ECH-associated protein 1/Cyclin-dependent kinase 9 (Homo sapiens, UniProt P50750+Q14145); assay: PROTAC activity at Keap1/CDK9 in human MOLT4 cells measured after 16 hrs; type: cell-based; settings: molt-4
[3] = test system: LNCaP; assay: Cytotoxicity against human LNCap cells; type: functional, cell-based
[4] = test system: DU-145; assay: Cytotoxicity against human DU-145 cells; type: functional, cell-based
[5] = molecular target: T1, Kelch-like ECH-associated protein 1/Bromodomain-containing protein 4 (Homo sapiens, UniProt O60885+Q14145); assay: PROTAC activity at Keap1/BRD4 in human MDA-MB-231 cells assessed as degradation of BRD4 measured after 10 hrs; type: cell-based
[6] = molecular target: T1, Kelch-like ECH-associated protein 1/Bromodomain-containing protein 4; assay: PROTAC activity at Keap1/BRD4 in human MDA-MB-231 cells assessed as degradation of BRD4 measured after 5 hrs; type: cell-based
[7] = molecular target: T2, von Hippel-Lindau disease tumor suppressor/3-hydroxy-3-methylglutaryl-coenzyme A reductase (Homo sapiens, UniProt P04035+P40337); assay: PROTAC activity at VHL/recombinant HMGCR in human Insig-depletion HepG2 cells assessed as degradation of HMGCR measured at 1 uM after 16 hrs relative to control; type: cell-based
Target sequence in this assay (P40337 whole entry, looked up, one chain of several): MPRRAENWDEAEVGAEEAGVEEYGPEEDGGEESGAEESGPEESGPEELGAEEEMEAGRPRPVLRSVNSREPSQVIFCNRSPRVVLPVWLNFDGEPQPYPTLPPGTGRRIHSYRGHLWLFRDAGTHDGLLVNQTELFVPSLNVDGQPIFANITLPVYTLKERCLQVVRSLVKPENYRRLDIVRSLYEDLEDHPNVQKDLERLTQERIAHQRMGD

[8] = molecular target: T3, 3-hydroxy-3-methylglutaryl-coenzyme A reductase (Homo sapiens, UniProt P04035); assay: Inhibition of HMGCR (unknown origin)
T3 sequence (P04035 whole entry): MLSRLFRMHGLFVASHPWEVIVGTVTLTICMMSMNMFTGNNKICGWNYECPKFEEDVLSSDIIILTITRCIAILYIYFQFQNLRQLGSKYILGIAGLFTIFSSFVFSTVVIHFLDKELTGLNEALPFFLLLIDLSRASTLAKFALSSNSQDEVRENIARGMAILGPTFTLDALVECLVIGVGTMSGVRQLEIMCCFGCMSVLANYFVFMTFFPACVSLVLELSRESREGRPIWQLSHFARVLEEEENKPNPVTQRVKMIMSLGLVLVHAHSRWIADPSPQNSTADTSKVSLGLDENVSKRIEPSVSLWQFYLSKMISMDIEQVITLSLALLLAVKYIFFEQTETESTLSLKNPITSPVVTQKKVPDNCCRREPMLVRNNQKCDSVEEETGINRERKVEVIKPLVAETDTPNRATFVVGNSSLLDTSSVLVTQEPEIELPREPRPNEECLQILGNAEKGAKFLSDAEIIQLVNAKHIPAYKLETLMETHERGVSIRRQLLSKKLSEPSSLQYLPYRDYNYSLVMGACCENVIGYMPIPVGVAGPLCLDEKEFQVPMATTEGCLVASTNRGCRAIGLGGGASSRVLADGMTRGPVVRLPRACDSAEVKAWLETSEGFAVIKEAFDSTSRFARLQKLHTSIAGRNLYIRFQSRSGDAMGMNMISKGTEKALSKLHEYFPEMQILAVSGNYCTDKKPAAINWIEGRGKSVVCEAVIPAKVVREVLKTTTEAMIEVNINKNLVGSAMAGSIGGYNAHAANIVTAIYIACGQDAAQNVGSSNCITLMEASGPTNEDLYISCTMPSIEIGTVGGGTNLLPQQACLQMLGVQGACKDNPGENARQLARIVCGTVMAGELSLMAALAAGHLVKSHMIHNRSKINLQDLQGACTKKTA

[9] = molecular target: T2, von Hippel-Lindau disease tumor suppressor/3-hydroxy-3-methylglutaryl-coenzyme A reductase; assay: PROTAC activity at VHL/recombinant HMGCR in human Insig-depletion HepG2 cells assessed as degradation of HMGCR measured after 16 hrs; type: cell-based
Target sequence in this assay (P40337 whole entry, one chain of several): as the sequence (P40337 whole entry, looked up, one chain of several) above

[10] = molecular target: T2, von Hippel-Lindau disease tumor suppressor/3-hydroxy-3-methylglutaryl-coenzyme A reductase; assay: PROTAC activity at VHL/recombinant HMGCR in human HepG2 cells assessed as degradation of HMGCR measured at 0.1 uM after 16 hrs relative to control; type: cell-based
Target sequence in this assay (P40337 whole entry, looked up, one chain of several): as the sequence (P40337 whole entry, looked up, one chain of several) above

[11] = Antiviral activity against IAV WSN/33 infected in luciferase tagged HEK293T cells assessed as suppression of de novo viral replication incubated for 24 hr; type: functional, cell-based; settings: Influenza A virus, WSN/33, HEK-293T
[12] = molecular target: T3, 3-hydroxy-3-methylglutaryl-coenzyme A reductase; assay: Degradation of HMGCR (unknown origin) expressed in CHO-7 cells; type: cell-based
[13] = test system: HepG2; assay: Cytotoxicity against human HepG2 cells incubated for 24 hrs by MTT assay; type: functional, cell-based; settings: HepG2, 24 h
[14] = test system: HepG2; assay: Cytotoxicity against human HepG2 cells measured after 24 hrs by MTT assay; type: functional, cell-based; settings: HepG2, 24 h
[15] = test system: Huh-7; assay: Cytotoxicity against human Huh-7 cells incubated for 24 hrs by MTT assay; type: functional, cell-based; settings: Huh-7, 24 h
[16] = molecular target: Protein cereblon/E3 ubiquitin-protein ligase Mdm2 (Homo sapiens) (UniProt Q00987+Q96SW2); assay: PROTAC activity at CRBN/MDM2 (unknown origin) assessed as degradation of MDM2 relative to control; type: protein assay
[17] = test system: A549; assay: Cytotoxicity against human A549 cells measured after 24 hrs by MTT assay; type: functional, cell-based; settings: A549, 24 h
[18] = test system: A549; assay: Cytotoxicity against human A549 cells incubated for 24 hrs by MTT assay; type: functional, cell-based; settings: A549, 24 h
[19] = test system: Huh-7; assay: Cytotoxicity against human Huh-7 cells measured after 24 hrs by MTT assay; type: functional, cell-based; settings: Huh-7, 24 h
[20] = test system: SK-BR-3; assay: Cytotoxicity against human SK-BR-3 cells by inducing cell cycle arrest incubated for 30 mins measured by FacScallibur flow cytometric analysis; type: functional, cell-based; settings: SK-BR-3, 0.5 h
[21] = test system: MCF7; assay: Cytotoxicity against human MCF7 cells by inducing cell cycle arrest incubated for 30 mins measured by FacScallibur flow cytometric analysis; type: functional, cell-based; settings: MCF7, 0.5 h
[22] = molecular target: von Hippel-Lindau disease tumor suppressor/G-protein coupled estrogen receptor 1 (Homo sapiens, UniProt Q99527+P40337); assay: PROTAC activity at VHL/GPER (unknown origin) assessed as degradation of GPER; type: protein assay
[23] = molecular target: von Hippel-Lindau disease tumor suppressor/Estrogen receptor (Homo sapiens, UniProt P03372+P40337); assay: PROTAC activity at VHL/ERalpha in human MCF7 cells assessed as degradation of ERalpha; type: cell-based
[24] = molecular target: T4, Protein cereblon/Protein deacetylase HDAC6 (Homo sapiens, UniProt Q9UBN7+Q96SW2); assay: PROTAC activity at CRBN/HDAC6 (unknown origin) assessed as degradation of HDAC6; type: protein assay
Target sequence in this assay (Q9UBN7 whole entry): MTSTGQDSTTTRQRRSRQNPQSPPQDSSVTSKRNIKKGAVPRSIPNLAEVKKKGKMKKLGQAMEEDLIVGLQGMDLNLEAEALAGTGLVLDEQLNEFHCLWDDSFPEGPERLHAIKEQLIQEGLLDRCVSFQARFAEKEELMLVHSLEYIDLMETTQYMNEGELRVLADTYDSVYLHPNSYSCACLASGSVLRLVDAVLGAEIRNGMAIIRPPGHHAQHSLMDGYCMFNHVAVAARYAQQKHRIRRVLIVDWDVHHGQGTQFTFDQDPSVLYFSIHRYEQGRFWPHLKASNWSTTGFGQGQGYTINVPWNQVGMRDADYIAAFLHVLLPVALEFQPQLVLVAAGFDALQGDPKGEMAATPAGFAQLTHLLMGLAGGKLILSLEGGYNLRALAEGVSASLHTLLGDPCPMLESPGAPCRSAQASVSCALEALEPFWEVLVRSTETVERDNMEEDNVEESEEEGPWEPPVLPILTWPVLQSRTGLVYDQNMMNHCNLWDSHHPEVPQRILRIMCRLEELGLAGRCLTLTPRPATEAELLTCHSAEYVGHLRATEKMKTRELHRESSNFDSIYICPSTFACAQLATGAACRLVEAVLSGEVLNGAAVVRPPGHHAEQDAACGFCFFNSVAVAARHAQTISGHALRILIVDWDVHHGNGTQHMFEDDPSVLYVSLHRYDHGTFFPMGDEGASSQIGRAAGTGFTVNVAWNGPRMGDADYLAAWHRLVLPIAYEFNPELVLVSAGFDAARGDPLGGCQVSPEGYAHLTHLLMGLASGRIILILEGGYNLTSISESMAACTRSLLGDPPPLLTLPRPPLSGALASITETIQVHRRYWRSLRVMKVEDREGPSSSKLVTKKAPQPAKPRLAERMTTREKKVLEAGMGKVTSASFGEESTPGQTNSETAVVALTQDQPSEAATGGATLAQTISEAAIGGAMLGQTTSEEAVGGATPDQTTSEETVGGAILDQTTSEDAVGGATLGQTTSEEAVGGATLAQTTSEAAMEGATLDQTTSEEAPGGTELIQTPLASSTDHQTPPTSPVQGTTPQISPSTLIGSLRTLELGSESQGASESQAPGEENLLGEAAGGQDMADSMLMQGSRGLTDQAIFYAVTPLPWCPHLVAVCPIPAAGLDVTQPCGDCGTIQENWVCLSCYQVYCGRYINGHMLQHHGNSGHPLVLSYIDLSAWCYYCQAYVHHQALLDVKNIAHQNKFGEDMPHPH
Target sequence in this assay (Q96SW2 whole entry): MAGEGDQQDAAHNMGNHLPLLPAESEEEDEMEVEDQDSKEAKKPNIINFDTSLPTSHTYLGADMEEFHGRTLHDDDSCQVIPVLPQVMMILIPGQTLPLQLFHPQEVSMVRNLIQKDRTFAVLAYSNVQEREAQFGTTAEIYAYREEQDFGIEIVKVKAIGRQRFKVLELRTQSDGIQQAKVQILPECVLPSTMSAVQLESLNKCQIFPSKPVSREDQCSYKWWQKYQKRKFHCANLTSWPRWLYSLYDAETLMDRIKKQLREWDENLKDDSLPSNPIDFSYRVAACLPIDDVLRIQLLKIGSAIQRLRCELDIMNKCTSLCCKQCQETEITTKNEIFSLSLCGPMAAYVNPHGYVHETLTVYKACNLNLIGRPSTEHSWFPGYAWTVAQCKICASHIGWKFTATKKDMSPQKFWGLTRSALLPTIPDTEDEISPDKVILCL

[25] = molecular target: T4, Protein cereblon/Protein deacetylase HDAC6; assay: PROTAC activity at CRBN/HDAC6 (unknown origin) assessed as degradation of HDAC6 relative to control; type: protein assay
[26] = test system: SU-DHL-1; assay: Cytotoxicity against human SU-DHL-1 cells incubated for 72 hrs by CCK-8 assay; type: functional, cell-based; settings: SU-DHL-1, 72 h

T1 sequence (Q14145 whole entry, looked up, other chains not shown): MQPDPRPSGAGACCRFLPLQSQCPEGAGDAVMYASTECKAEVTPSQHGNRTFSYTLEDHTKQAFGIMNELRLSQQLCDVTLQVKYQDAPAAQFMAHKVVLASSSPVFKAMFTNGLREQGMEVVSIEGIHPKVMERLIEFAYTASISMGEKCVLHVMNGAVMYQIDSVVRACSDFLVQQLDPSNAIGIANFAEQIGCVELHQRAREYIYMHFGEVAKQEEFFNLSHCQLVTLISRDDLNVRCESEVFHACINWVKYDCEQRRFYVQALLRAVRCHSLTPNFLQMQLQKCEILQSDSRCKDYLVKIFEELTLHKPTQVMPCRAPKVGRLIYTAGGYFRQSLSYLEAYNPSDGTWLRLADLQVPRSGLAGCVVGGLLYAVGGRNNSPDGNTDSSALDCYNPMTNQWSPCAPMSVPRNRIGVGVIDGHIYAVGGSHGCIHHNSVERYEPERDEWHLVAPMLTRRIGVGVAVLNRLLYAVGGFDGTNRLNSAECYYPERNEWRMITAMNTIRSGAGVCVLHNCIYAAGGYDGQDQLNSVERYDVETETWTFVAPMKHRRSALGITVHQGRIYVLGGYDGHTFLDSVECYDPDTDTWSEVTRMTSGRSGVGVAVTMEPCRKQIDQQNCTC
Chain of von Hippel-Lindau disease tumor suppressor/G-protein coupled estrogen receptor 1 (Q99527 whole entry): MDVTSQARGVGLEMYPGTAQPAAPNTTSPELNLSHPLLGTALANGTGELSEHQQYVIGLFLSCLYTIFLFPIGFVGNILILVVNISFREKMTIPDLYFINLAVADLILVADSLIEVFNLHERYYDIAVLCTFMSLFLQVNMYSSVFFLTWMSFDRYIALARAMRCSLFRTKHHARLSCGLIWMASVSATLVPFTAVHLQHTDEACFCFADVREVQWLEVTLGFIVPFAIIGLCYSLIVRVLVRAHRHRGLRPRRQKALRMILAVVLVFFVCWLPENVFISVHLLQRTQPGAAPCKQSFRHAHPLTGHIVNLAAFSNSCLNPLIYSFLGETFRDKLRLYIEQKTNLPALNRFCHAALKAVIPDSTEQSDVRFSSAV
Chain of von Hippel-Lindau disease tumor suppressor/G-protein coupled estrogen receptor 1 (P40337 whole entry): as the sequence (P40337 whole entry, looked up, one chain of several) above
Chain of von Hippel-Lindau disease tumor suppressor/Estrogen receptor (P03372 whole entry): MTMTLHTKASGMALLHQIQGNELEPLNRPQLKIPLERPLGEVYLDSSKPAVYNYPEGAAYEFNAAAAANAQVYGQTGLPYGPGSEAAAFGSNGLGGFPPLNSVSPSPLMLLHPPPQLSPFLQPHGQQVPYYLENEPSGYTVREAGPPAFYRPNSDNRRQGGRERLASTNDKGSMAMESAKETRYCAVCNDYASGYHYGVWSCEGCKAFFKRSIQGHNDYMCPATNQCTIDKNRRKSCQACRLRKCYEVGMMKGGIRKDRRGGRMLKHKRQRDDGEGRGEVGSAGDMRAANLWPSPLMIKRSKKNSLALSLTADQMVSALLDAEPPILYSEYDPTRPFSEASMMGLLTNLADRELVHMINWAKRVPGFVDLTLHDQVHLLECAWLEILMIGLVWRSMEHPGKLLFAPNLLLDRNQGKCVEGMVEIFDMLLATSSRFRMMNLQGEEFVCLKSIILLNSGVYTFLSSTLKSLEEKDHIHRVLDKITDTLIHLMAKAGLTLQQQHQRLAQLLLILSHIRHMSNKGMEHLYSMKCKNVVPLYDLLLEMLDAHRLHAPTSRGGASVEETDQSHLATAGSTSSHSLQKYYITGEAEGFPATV
Chain of von Hippel-Lindau disease tumor suppressor/Estrogen receptor (P40337 whole entry): as the sequence (P40337 whole entry, looked up, one chain of several) above

Work on `COc1cc(/C=C/C(=O)N2CCC=CC2=O)cc(OC)c1OCCN1CCN(C(=O)CN2CCC(C(=O)Nc3ncc(SCc4ncc(C(C)(C)C)o4)s3)CC2)CC1` yielded an EC50 [1] of 6.4 nM, a DC50 [2] of 9 nM and an EC50 [3] of 3.2 nM. For the same molecule, the EC50 [4] was 8.5 nM.

Molecule `CC1=C(O)C(=O)C=C2C1=CC=C1[C@@]2(C)CC[C@@]2(C)[C@@H]3C[C@](C)(C(=O)NCCCOCCOCCOCCCNC(=O)C[C@@H]4N=C(c5ccc(Cl)cc5)c5c(sc(C)c5C)-n5c(C)nnc54)CC[C@]3(C)CC[C@]12C` has a DC50 [5] of 9.6 nM and a DC50 [6] of 29 nM.

`Cc1ncsc1-c1ccc(CNC(=O)[C@@H]2C[C@@H](O)CN2C(=O)[C@H](NC(=O)CCCCCCCCCCNC(=O)OC2C[C@@H](C)C=C3C=C[C@H](C)[C@H](CC[C@@H](O)C[C@@H](O)CC=O)[C@H]32)C(C)(C)C)cc1` (stereo not given in full) showed an Emax [7] of 76%, an IC50 [8] of 250 nM and a DC50 [9] of 120 nM. The Emax [10] was 56%.

Work on `C/C(=C\CC/C(C)=C/C[C@]1(O)C(=O)c2c(O)cc(C)c3c(O)c(C)c(O)c(c23)C1=O)CC/C=C(\CO)CC[C@@H](O)C(C)(C)O` yielded an IC50 [11] of 6600 nM.

`C=CCC(O)(CC=C)CCC[C@@H](C)[C@H]1CC[C@H]2[C@@H]3[C@@H](O)C=C4C(C)(C)[C@@H](O)CC[C@]4(C)[C@H]3CC[C@]12C` gave a DC50 [12] of 390 nM.

In the case of `C[C@H]1[C@H](C)CCC2(C(=O)NCCOCCOCCOCCNc3cccc4c3C(=O)N(C3CCC(=O)NC3=O)C4=O)CC[C@]3(C)C(=CC[C@@H]4[C@@]5(C)CCC(O)C(C)(C)[C@@H]5CC[C@]43C)[C@H]12` (stereo not given in full), the IC50 [13] is reported as 230 nM, the IC50 [14] is reported as 380 nM and the IC50 [15] is reported as 230 nM. For the same molecule, the Emax [16] was 75%, the IC50 [17] was 230 nM and the IC50 [18] was 230 nM. The IC50 [19] was 390 nM.

Molecule `Cc1ncsc1-c1ccc(CNC(=O)[C@@H]2C[C@@H](O)CN2C(=O)[C@@H](NC(=O)COCCOCCOCCOCC(=O)NCCOCCOCCOCCOCCOCCOCCOCCOCCC(=O)O[C@H]2CC[C@H]3[C@@H]4CCc5cc(O)ccc5[C@H]4CC[C@]23C)C(C)(C)C)cc1` has an IC50 [20] of 11100 nM, an IC50 [21] of 17000 nM and a DC50 [22] of 100000 nM. It also gave a DC50 [23] of 10000 nM.

`O=C(CCCO/N=C1/C(=C2/C(=O)N(Cc3cn(CCOCCNc4cccc5c4C(=O)N(C4CCC(=O)NC4=O)C5=O)nn3)c3ccccc32)Nc2ccccc21)NO` (stereo not given) gave a DC50 [24] of 109 nM and an Emax [25] of 88%.

For `Cc1ncsc1-c1ccc(CNC(=O)[C@@H]2C[C@@H](O)CN2C(=O)[C@@H](NC(=O)COCCOCCOCCOCC(=O)O[C@H]2CC[C@H]3[C@@H]4CCc5cc(O)ccc5[C@H]4CC[C@]23C)C(C)(C)C)cc1`, the IC50 [20] was 10900 nM, the IC50 [21] was 9000 nM and the DC50 [22] was 100000 nM. For the same molecule, the DC50 [23] was 10000 nM.

`Cc1cc(Nc2ncc(N)c(Nc3ccccc3S(=O)(=O)C(C)C)n2)c(OC(C)C)cc1C1CCN(C(=O)CCCC(=O)N[C@@H](C(=O)N2C[C@H](OC(=O)CCCCn3cc(CNC(=O)CCC(NC(=O)c4ccc(NCc5cnc6nc(N)[nH]c(=O)c6n5)cc4)C(=O)O)nn3)C[C@H]2C(=O)N[C@@H](C)c2ccc(-c3scnc3C)cc2)C(C)(C)C)CC1` (stereo not given in full) showed an IC50 [26] of 200 nM.
